Assay [1] has as its system Bacillus subtilis. The assay can be described thus: Antimicrobial activity against Bacillus subtilis assessed as diameter of inhibition zone incubated for 24 hrs by well diffusion assay. Type of assay: functional.
The next assay has as its system Micrococcus luteus. The assay can be described thus: Antimicrobial activity against Micrococcus luteus assessed as diameter of inhibition zone incubated for 24 hrs by well diffusion assay. The class given is functional.
The test system of assay [2] is Pseudomonas aeruginosa. The assay can be described thus: Antimicrobial activity against Pseudomonas aeruginosa assessed as diameter of inhibition zone incubated for 24 hrs by well diffusion assay. The class given is functional. (In general: Agar diffusion results depend on both activity and mobility in agar.)
In assay [3] the test system is Salmonella typhimurium. The assay can be described thus: Antimicrobial activity against Salmonella typhimurium DT104 assessed as diameter of inhibition zone incubated for 24 hrs by well diffusion assay. The class given is functional, Salmonella enterica subsp. enterica serovar Typhimurium.
Assay [4] deals with Bacillus subtilis. The assay can be described thus: Antibacterial activity against Bacillus subtilis assessed as reduction in bacterial cell viability by well plate method. Type of assay: functional.
Assay [5] has as its system Pseudomonas aeruginosa. The assay can be described thus: Antibacterial activity against Pseudomonas aeruginosa assessed as reduction in microbial growth after 18 hrs by MTT based broth dilution method. The class given is functional. Background: In broth dilution the organism is exposed to a series of concentrations in liquid medium.
Assay [6] concerns Pseudomonas aeruginosa. The assay can be described thus: Antibacterial activity against Pseudomonas aeruginosa assessed as reduction in microbial growth by broth microdilution method. The class given is functional.
In assay [7] the test system is Klebsiella pneumoniae. The assay can be described thus: Antibacterial activity against Klebsiella pneumoniae assessed as reduction in bacterial growth by broth microdilution method. The class given is functional.
The subject of assay [8] is Escherichia coli. The assay can be described thus: Antibacterial activity Escherichia coli assessed as reduction in bacterial growth. The class given is functional.
In assay [9] the test system is Staphylococcus aureus. The assay can be described thus: Antibacterial activity against Staphylococcus aureus assessed as bacterial growth inhibition. The class given is functional.
Assay [10] relates to Staphylococcus epidermidis. The assay can be described thus: Antibacterial activity against Staphylococcus epidermidis assessed as reduction in microbial growth. Type of assay: functional.
The test system of assay [11] is Escherichia coli. The assay can be described thus: Antibacterial activity against Escherichia coli assessed as reduction in bacterial growth by broth microdilution method. Type of assay: functional.
The subject of assay [12] is Salmonella enterica subsp. enterica serovar Paratyphi B. The assay can be described thus: Antibacterial activity against Salmonella paratyphi B CICC 21495 assessed as reduction in […]. The settings on record: time lower 48 hrs. The class given is functional.
In assay [13] the test system is Staphylococcus aureus. The assay can be described thus: Antimicrobial activity against Staphylococcus aureus assessed as inhibition of microbial growth incubated for 18 hrs by CLSI protocol based Mueller-Hinton broth assay. The class given is functional.
Assay [14] concerns Vibrio cholerae. The assay can be described thus: Antibacterial activity against Vibrio cholerae assessed as reduction in bacterial growth measured after 18 to 20 hrs by broth microdilution method. Type of assay: functional. The note with it: time 18-20 hrs.
A further assay relates to Shigella boydii. The assay can be described thus: Antibacterial activity against Shigella boydii assessed as inhibition of bacterial growth measured after 18 to 20 hrs by broth microdilution method. The settings on record: time 18-20 hrs. Type of assay: functional.
Assay [15] has as its system Escherichia coli. The assay can be described thus: Antimicrobial activity against Escherichia coli assessed as inhibition of microbial growth incubated for 18 hrs by CLSI protocol based Mueller-Hinton broth assay. The class given is functional.
The next assay deals with Enterococcus faecalis. The assay can be described thus: Antimicrobial activity against Enterococcus faecalis assessed as inhibition of microbial growth incubated for 18 hrs by CLSI protocol based Mueller-Hinton broth assay. The class given is functional.
Assay [16] concerns Vibrio cholerae. The assay can be described thus: Antibacterial activity against Vibrio cholerae measured after 18 to 20 hrs by broth microdilution method. Type of assay: functional. The settings on record: time 18-20 hrs.
For assay [17], the system named is Pseudomonas aeruginosa. The assay can be described thus: Antimicrobial activity against Pseudomonas aeruginosa assessed as inhibition of microbial growth incubated for 18 hrs by CLSI protocol based Mueller-Hinton broth assay. The class given is functional.
The test system of a further assay is Vibrio parahaemolyticus. The assay can be described thus: Antibacterial activity against Vibrio parahaemolyticus assessed as reduction in bacterial growth inhibition measured after 24 hrs by Mueller Hinton Agar dilution method. Type of assay: functional. A general note: In agar dilution, organisms are placed on agar that contains the substance at set levels.

In another assay the test system is Plesiomonas shigelloides. The assay can be described thus: Antibacterial activity against Plesiomonas shigelloides assessed as inhibition of bacterial growth measured after 18 to 20 hrs by broth microdilution method. Type of assay: functional. The note with it: time 18-20 hrs.
Assay [18] relates to Salmonella typhimurium. The assay can be described thus: Antibacterial activity against Salmonella typhimurium DT104 assessed as reduction in bacterial growth inhibition measured after 24 hrs by Mueller Hinton Agar dilution method. The class given is functional, Salmonella enterica subsp. enterica serovar Typhimurium. The note with it: Salmonella enterica.
Assay [19] relates to Salmonella typhimurium. The assay can be described thus: Antimicrobial activity against Salmonella typhimurium DT104 assessed as inhibition of microbial growth incubated for 18 hrs by CLSI protocol based Mueller-Hinton broth assay. Type of assay: functional, Salmonella enterica subsp. enterica serovar Typhimurium. The note with it: Salmonella enterica.
Assay [20] concerns Staphylococcus epidermidis. The assay can be described thus: Antimicrobial activity against Staphylococcus epidermidis assessed as inhibition of microbial growth incubated for 18 hrs by CLSI protocol based Mueller-Hinton broth assay. The class given is functional.
Assay [21] has as its system Morganella morganii. The assay can be described thus: Antibacterial activity against Morganella morganii UM869 incubated for 16 to 18 hrs by broth microdilution method. Type of assay: functional. The settings on record: time 16-18 hrs.
The subject of assay [22] is Vibrio cholerae. The assay can be described thus: Antibacterial activity against Vibrio cholerae assessed as inhibition of bacterial growth incubated for 24 hrs by broth microdilution method. Type of assay: functional.
The subject of another assay is Salmonella enterica. The assay can be described thus: Antimicrobial activity against Salmonella enterica assessed as inhibition of microbial growth incubated for 18 hrs by CLSI protocol based Mueller-Hinton broth assay. Type of assay: functional.
The subject of another assay is Aeromonas hydrophila. The assay can be described thus: Antibacterial activity against Aeromonas hydrophila assessed as inhibition of microbial growth incubated for 24 hrs by CLSI protocol based Mueller-Hinton broth assay. Type of assay: functional.
Another assay relates to Shigella sonnei. The assay can be described thus: Antibacterial activity against Shigella sonnei assessed as inhibition of bacterial growth measured after 18 to 20 hrs by broth microdilution method. The class given is functional. The settings on record: time 18-20 hrs.
The next assay deals with Shigella flexneri. The assay can be described thus: Antibacterial activity against Shigella flexneri assessed as inhibition of bacterial growth incubated for 24 hrs by broth microdilution method. Type of assay: functional.
The test system of another assay is Citrobacter freundii. The assay can be described thus: Antibacterial activity against multidrug-resistant Citrobacter freundii assessed as bacterial growth inhibition incubated for 20 to 22 hrs by CLSI based analysis. Type of assay: functional. The note with it: time 20-22 hrs.
A further assay concerns Edwardsiella tarda. The assay can be described thus: Antimicrobial activity against Edwardsiella tarda assessed as inhibition of microbial growth incubated for 18 hrs by CLSI protocol based Mueller-Hinton broth assay. Type of assay: functional.
For the next assay, the system named is Providencia rettgeri. The assay can be described thus: Antibacterial activity against Providencia rettgeri assessed as bacterial growth inhibition incubated for 18 hrs by CLSI protocol based Mueller-Hinton broth assay. Type of assay: functional.
In assay [23] the test system is Klebsiella pneumoniae. The assay can be described thus: Antimicrobial activity against Klebsiella pneumoniae assessed as inhibition of microbial growth incubated for 18 hrs by CLSI protocol based Mueller-Hinton broth assay. Type of assay: functional.
In assay [24] the test system is Morganella morganii. The assay can be described thus: Antibacterial activity against Morganella morganii UM573 assessed as bacterial growth inhibition incubated for 20 to 22 hrs by CLSI based analysis. Type of assay: functional. The settings on record: time 20-22 hrs.
The next assay deals with Proteus vulgaris. The assay can be described thus: Antimicrobial activity against Proteus vulgaris assessed as microbial growth inhibition incubated for 24 hrs by broth microdilution method. The class given is functional.
For assay [25], the system named is Bacillus subtilis. The assay can be described thus: Antibacterial activity against Bacillus subtilis assessed as reduction in bacterial growth incubated for 24 hrs by CLSI protocol based Mueller-Hinton broth assay. Type of assay: functional.
The next assay relates to Salmonella paratyphi. The assay can be described thus: Antibacterial activity against Salmonella paratyphi A CICC 21501 incubated overnight by standard microtiter dilution method. Type of assay: functional, Salmonella enterica subsp. enterica serovar Paratyphi A. The settings on record: Salmonella enterica.
In a further assay the test system is Enterobacter sp. The assay can be described thus: Antibacterial activity against Enterobacter sp. assessed as inhibition of bacterial growth. The class given is functional.

SMILES strings stand for the structures. In brackets after ≈: the same amount, converted by molar mass.

One may read the MIC as the lowest concentration found to suppress growth.

For `CC[C@H]1OC(=O)[C@H](C)[C@@H](O[C@H]2C[C@@](C)(OC)[C@@H](O)[C@H](C)O2)[C@H](C)[C@@H](O[C@@H]2O[C@H](C)C[C@H](N(C)C)[C@H]2O)[C@](C)(O)C[C@@H](C)C(=O)[C@H](C)[C@@H](O)[C@]1(C)O` [ERYTHROMYCIN], the “inhibition zone (IZ)” value was found to be 12 mm in the assay with Bacillus subtilis [1], 10 mm in the assay with Micrococcus luteus, 10 mm with Pseudomonas aeruginosa [2] and 7 mm with Salmonella typhimurium [3].
For `O=C1CCCC2=C1C(c1ccc(Cl)cc1)c1c(nc(-c3cc4ccccc4oc3=O)[nH]c1=O)O2` (stereo not given), the MIC in the assay on Bacillus subtilis [4] is 25 µg/mL (≈ 52.9 µM); in the assay with Pseudomonas aeruginosa [5], 100 µg/mL; in the assay with Pseudomonas aeruginosa [6], 100 µg/mL; in the assay with Klebsiella pneumoniae [7] it was 100 µg/mL (≈ 211 µM); in the assay with Escherichia coli [8], 100 µg/mL (≈ 211 µM); with Staphylococcus aureus [9], 100 µg/mL (≈ 211 µM). Further, the MIC in [10] stood at 50 µg/mL; in the assay on Escherichia coli [11] it was 50 µg/mL (≈ 106 µM).
On to `Cc1ccc(-c2cc(-c3ccc(Cl)cc3)nc(/N=C3/C(=O)N(CNCN4CCOCC4)c4ccc(Br)cc43)n2)cc1`, for which the MIC in [12] is 39.1 µg/mL (≈ 61.8 µM); in the assay with Staphylococcus aureus [13], 78.1 µg/mL; in the assay with Vibrio cholerae [14], 9.76 µg/mL (≈ 15.4 µM); with Shigella boydii it was 9.76 µg/mL (≈ 15.4 µM); in the assay with Escherichia coli [15], 2.44 µg/mL; with Enterococcus faecalis, 1.22 µg/mL. Moreover, the MIC in the assay with Vibrio cholerae [16] came out at 0.3 µg/mL (≈ 0.475 µM); in the assay on Pseudomonas aeruginosa [17] it was 312 µg/mL; in the assay with Vibrio parahaemolyticus it was 78.1 µg/mL (≈ 124 µM); in the assay with Plesiomonas shigelloides it was 4.88 µg/mL (≈ 7.72 µM); in the assay on Salmonella typhimurium [18], 156 µg/mL (≈ 247 µM); in the assay on Salmonella typhimurium [19], 19.5 µg/mL. The minimal inhibitory concentration (MIC) was 625 µg/mL in assay [20]; 156 µg/mL (≈ 247 µM) with Morganella morganii [21]; 39.1 µg/mL (≈ 61.8 µM) in the assay with Vibrio cholerae [22]; 9.76 µg/mL with Salmonella enterica; 312 µg/mL in the assay with Aeromonas hydrophila; 312 µg/mL (≈ 494 µM) with Shigella sonnei. Besides, the MIC with Shigella flexneri turned out to be 312 µg/mL (≈ 494 µM); with Citrobacter freundii, 39.1 µg/mL (≈ 61.8 µM); with Edwardsiella tarda, 39.1 µg/mL; in the assay with Providencia rettgeri, 39.1 µg/mL (≈ 61.8 µM); with Klebsiella pneumoniae [23], 312 µg/mL; in the assay with Morganella morganii [24] it was 156 µg/mL (≈ 247 µM). In addition, the MIC is 312 µg/mL (≈ 494 µM) in the assay with Proteus vulgaris, 9.76 µg/mL (≈ 15.4 µM) in the assay with Bacillus subtilis [25], 39.1 µg/mL (≈ 61.8 µM) against Salmonella paratyphi and 156 µg/mL (≈ 247 µM) in the assay on Enterobacter sp..

For the origin of these results see ChEMBL document CHEMBL5532639, “Heterocyclic pyrimidine derivatives as promising antibacterial agents” (Eur J Med Chem, 2023).
